Source: article PMC10448176, “Arsenite oxidase in complex with antimonite and arsenite oxyanions: Insights into the catalytic mechanism” (The Journal of Biological Chemistry, 2023)
Read-outs that look alike come from different tables or passages of the source.

Target: Af Aio (arsenite oxidase, AioA/AioB) (Alcaligenes faecalis, UniProt Q7SIF4)
Conditions: Mo active site of AioA, covalent

Row | Structure (SMILES) | X-ray crystallography, crystal soak (10 mM potassium antimonyl tartrate soak of ferricyanide-oxidized crystals, one oxo bridge to Mo, Sb with four further oxo/hydroxo groups, turnover intermediate) | X-ray crystallography, crystal soak (10 mM sodium arsenite soak of ferricyanide-oxidized crystals, mu-oxo bridged to Mo, two structures: As_d (8CH9, two oxo bridges) and As_c (8CFF, one bridge, possible))
1 | [OH][Sb]([OH])[OH] [Sb, antimonite] | the Sb atom is sitting vertically to Mo and coordinated to the oxo ligand | –
2 | O[As](O)O [As, arsenite] | – | the As ion is bound to Mo via one μ-oxo bridge (Mo-Ox-As)
